Laboratory results taken from US20250282720A1, “ALKYLSULFENYL THIOCARBONATES: PRECURSORS TO HYDROPERSULFIDES POTENTLY ATTENUATE OXIDATIVE STRESS” (The Johns Hopkins University, priority 2021, published 2025).

How the values were obtained:
[1] = Decomposition of precursors in the presence of thiol (NAC / N-acetyl cysteine methyl ester), HPLC; assay type: physicochemical; conditions: 5 equiv NAC, PBS pH 7.4, HPLC
Protocol: Initially, the decomposition of 1a was analyzed in the presence of 5 equiv of N-acetylcysteine (NAC) in PBS (pH 7.4) by HPLC. […] To investigate the mechanism, this reaction was monitored by UPLC-MS. […] Additionally, a small amount of unsymmetrical dialkyl polysulfide (pink highlight, R^1SSnSR^2, n=0-3) is observed, likely formed via NAC reaction with symmetrical dialkyl polysulfides (Scheme 1-5, eq. 7). As expected, a new peak at 5.65 min corresponding to N-acetyl cysteine-thiocarbonate 9a also is observed, confirming thiol attack at the perthiocarbonate carbonyl carbon of 1a to release RSSH. Due to the unstable nature of RSSH under these experimental conditions, the yield of the by-product 9a was measured as an indication of RSSH yield. The observation of RSSH-derived polysulfides formation as major products led us to anticipate the efficient formation of by-product 9a. […] The lower observed yield of 9a is likely due to its further reaction with RSSH under these conditions. […]
To a solution of N-acetyl cysteine methyl ester (500 μM) in pH 7.4 phosphate buffer saline (100 mM) containing DTPA (100 μM), precursor 1a or 8 (100 μM) was added. […] At different time points, an aliquot of the reaction mixture (500 μL) was withdrawn and transferred to pre-cooled 0.1% formic acid (500 μL) and analyzed using HPLC. […]

[2] = test system: H9c2 cardiac myoblasts; assay: H9c2 cell protection from H2O2-mediated oxidative stress, CCK-8; assay type: cell-based, rat; conditions: then H2O2 200 μM
Protocol: The cytoprotective effects of 1a was then measured against oxidative stress.
H9c2 embryonic rat heart myoblasts were obtained from the American Type Culture Collection. Cells were grown in Dulbecco's minimal essential medium (DMEM), supplemented with fetal bovine serum (FBS) 10%, penicillin 100 U/mL and streptomycin 100 μg/mL. They were propagated in T75-flasks, split before reaching 70-80% confluence (usually every day or every second day), and used within 11 passages. Cells were passaged to tissue culture treated 96-well microtiter plates at the specified density in 180 μL volumes and incubated for 24 h.
Cells were seeded at a density of 5×10^3 cells/well. After 24 h, precursor 1a or by-product 4a was added at 20 μL volumes using DMSO:H2O (<0.01% DMSO as the vehicle). Cells were incubated for 2 h before media was removed and the cells gently washed with PBS (pH 7.4). Then, 180 μL of fresh media and 20 μL H2O2 diluted into H2O were added and cells were incubated for an additional 2 h. At the completion of H2O2 exposure, each well is carefully washed 3 times with PBS (pH 7.4) before adding 100 μL of media, without-FBS, containing 10% v/v CCK-8 (Dojindo) and incubated for 3 h prior to obtaining absorbance values at 450 nm. The relative % viability was calculated as 100 times the ratio of the Abs450 (pre-treated, H2O2-exposed) over Abs450 (vehicle-treated, non H2O2-exposed).

[3] = test system: H9c2 cardiac myoblasts; assay: H9c2 cell protection from H2O2-mediated oxidative stress, Sytox Green nucleic acid stain; assay type: cell-based, rat; conditions: Sytox viability assay, H2O2 200 μM
Protocol: Jones and Singer, 2001. […] Tominaga et al., 1999.
Cells were incubated for 2 h before media was removed and the cells gently washed with PBS (pH 7.4). Then, 180 μL of fresh media and 20 μL H2O2 diluted in H2O were added before cells were incubated for an additional 1 h.

[4] = test system: FA fibroblasts (GM04078); assay: Cytoprotection against H2O2 stress in FA fibroblasts, CCK8; assay type: cell-based, human; conditions: 4 h pretreatment, H2O2 75 μM for 4 h
Protocol: FIG. 10A, pretreatment of AST with varying concentrations in FA fibroblasts (GM04078, Coriell Institute) for 4 h followed by 4 h treatment with H2O2. Viability was measured using CCK8 assay. FIG. 10B, pretreatment of AST with varying concentrations in FA fibroblasts for 4 h followed by treatment with erastin for 24 h. […] Group comparisons are determined by a one-way analysis of variance (ANOVA) with Dunnet's correction post-hoc test using GraphPad Prism 8;
Initially, we measured the cytotoxicity of AST in FA skin fibroblasts (GM04078), obtained from the Coriell Institute, to ensure that the RSSH donor itself is not cytotoxic. […] We then measured the ability of AST to confer cytoprotection in FA fibroblasts against hydrogen peroxide (H2O2) stress.

[5] = test system: FA fibroblasts; assay: Lipid peroxidation, C11-BODIPY (581/591) flow cytometry; assay type: cell-based, human; conditions: 50 μM pre-treatment for 4 h, erastin 10 μM
Source text: Blue represents DMSO-treated cells, red represents erastin treated cells, and green represents reduction of lipid peroxidation in live cells pretreated with AST;
The reduction of FXN levels in FA increases mitochondrial iron accumulation, ultimately leading to iron-dependent accumulation of lipid ROS and subsequent lipid peroxidation. […] As has been reported previously, we employed C11-BODIPY (581/591) to monitor a shift in fluorescence of oxidized C11-BODIPY. […] Dixon et al., 2012; Martinez et al., 2020.

[6] = test system: aconitase; assay: Aconitase activity in enriched-mitochondrial pellets of FA fibroblasts; assay type: cell-based, human; set-up: aconitase activity after erastin: dose or concentration left out as unconfirmed
Protocol: Aconitase activity was measured as a result of formation of NADH and normalized to citrate synthase activity. FIG. 12B, pretreatment of AST with varying concentrations in FA fibroblasts for 4 h followed by 24 h treatment with erastin ([…]). Assays were conducted on enriched-mitochondrial pellets. Results are the means±SEM of n≥3 for all concentrations. *P<0.05, **P<0.005, ***P<0.0005, ****P<0.0001 for comparisons with the […]. Group comparisons are determined by a one-way analysis of variance (ANOVA) with Dunnet's correction post-hoc test using GraphPad Prism 8;
FXN deficiency results in diminished activity of various mitochondrial proteins that contain Fe—S cluster cofactors. For example, aconitase activity is affected in FA fibroblasts. Rötig et al., 1997. Aconitase catalyzes the stereospecific isomerization of citrate to isocitrate in the tricarboxylic acid cycle and its activity is highly dependent on an intact [4Fe-4S]^2+ cluster. We examined the impact of RSSH in FA fibroblasts on aconitase activity, the increase of which is reflective of preserved or augmented Fe—S cluster biosynthesis. […] To corroborate further that AST can effectively preserve or enhance Fe—S cluster assembly under challenging biological conditions, we conducted analogous experiments replacing H2O2 with erastin.

[7] = test system: ferritin heavy chain 1 (FTH1); assay: FTH1 protein expression, immunoblot; assay type: cell-based, human; conditions: 25 and 50 μM for 4 h, erastin 24 h
Protocol: FIG. 14A, FIG. 14B, FIG. 14C, and FIG. 14D show: FIG. 14A and FIG. 14B pretreatment of AST (25 and 50 μM) for 4 h followed by 24 h treatment with erastin ([…]) immunoblots for indicated proteins of lysates derived from FA fibroblasts. FIG. 14C and FIG. 14D, relative abundance of TFR1 and FTH1 proteins normalized to β-actin loading control. Results are the means+SEM of n=3 for all concentrations. *P<0.05, **P<0.005, comparisons with the erastin group. Group comparisons are determined by a one-way analysis of variance (ANOVA) with Dunnet's correction post-hoc test using GraphPad Prism 8. Samples were run on the same gel for SDS-Page gel electrophoresis in nonconsecutive lanes;
To test this hypothesis, we studied the effect of RSSH on TFR1 and FTH1 expression levels. We anticipated that the impacts of RSSH would result in downregulation of TFR1 and upregulation of FTH1. […] Feng et al., 2020; Park and Chung, 2019.

[8] = pH 7.4 solution at 37° C.; cited from earlier work

SMILES: COC(=O)C(NC(C)=O)C(C)(C)SSC(=O)Oc1ccccc1 (stereo not shown) [Precursor 1a, Methyl 2-acetamido-3-methyl-3-((phenoxycarbonyl)disulfaneyl)butanoate]
- t1/2 of decomposition in the presence of thiol [1]: 38.4 ± 6.6 s
- cytoprotection against H2O2-induced toxicity ([2]; pre-treatment 4 h): dose-dependent decrease of H2O2-induced toxicity
- cytoprotection against H2O2-induced toxicity ([2]; pre-treatment with 5 μM for 8 h): shows protection
- cytoprotection against H2O2-mediated toxicity [3]: consistently shows protective effects
- cytoprotection against H2O2 stress [4]: attenuated
- erastin-induced lipid peroxide levels [5]: attenuated erastin-induced lipid peroxide levels
- aconitase activity after H2O2 ([6]; 4 h pretreatment at 10, 25, 50 μM, 75 mM H2O2): rescues aconitase activity to levels found in control
- aconitase activity after erastin ([6]; pretreatment): attenuated this adverse effect
- FTH1 protein level [7]: two-fold increase
- half-life [8]: 2.15 h
